The record followed here is patent publication US8143293B2, “Kinase inhibitors useful for the treatment of myleoprolific diseases and other proliferative diseases” (Deciphera Pharmaceuticals, LLC, priority 2007, dated 2012).

Some results are limits rather than exact numbers.

In test [1] the target is T1, T315I Abl kinase (SEQ ID NO:2) (Homo sapiens, UniProt P00519, T315I).
T1 construct: purchased deCode Genetics
T1 sequence (P00519 with tags, fused parts or gaps T315I): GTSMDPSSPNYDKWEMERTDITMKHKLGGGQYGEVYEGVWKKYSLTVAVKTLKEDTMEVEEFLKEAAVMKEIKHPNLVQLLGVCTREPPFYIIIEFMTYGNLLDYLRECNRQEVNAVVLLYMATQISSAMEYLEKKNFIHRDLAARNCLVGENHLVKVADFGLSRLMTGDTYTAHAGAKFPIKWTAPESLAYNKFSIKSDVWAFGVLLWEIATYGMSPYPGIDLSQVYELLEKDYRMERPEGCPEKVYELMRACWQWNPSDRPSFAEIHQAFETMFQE
The experiment in a line: T315I Abl kinase (SEQ ID NO:2) assay, pyruvate kinase/lactate dehydrogenase coupled. The note with it: 1 h preincubation, ATP 500 μM; read-out: Biochemical IC50, Abl T315I Enzyme Assay. As to the method:
Abl Kinase (SEQ ID NO:2) Assay
Activity of T315I Abl kinase (SEQ ID NO:2) was determined by following the production of ADP from the kinase reaction through coupling with the pyruvate kinase/lactate dehydrogenase system (e.g., Schindler, et al. Science (2000) 289, 1938-1942). In this assay, the oxidation of NADH (thus the decrease at A340 nm) was continuously monitored spectrophometrically. The reaction mixture (100 μl) contained Abl kinase (4.4 nM, […] Abl from deCode Genetics), peptide substrate (EAIYAAPFAKKK, 0.2 mM), MgCl2 (10 mM), pyruvate kinase (4 units), lactate dehydrogenase (0.7 units), phosphoenol pyruvate (1 mM), and NADH (0.28 mM) in 90 mM Tris buffer containing 0.2% octyl-glucoside and 1% DMSO, pH 7.5. Test compounds were incubated with T315I Abl (SEQ ID NO:2) and other reaction reagents at 30° C. for 1 h before ATP (500 μM) was added to start the reaction. The absorption at 340 nm was monitored continuously for 2 hours at 30° C. on Polarstar Optima plate reader (BMG). The reaction rate was calculated using the 1.0 to 2.0 h time frame. Percent inhibition was obtained by comparison of reaction rate with that of a control (i.e. with no test compound). IC50 values were calculated from a series of percent inhibition values determined at a range of inhibitor concentrations using software routines as implemented in the GraphPad Prism software package.

The target of test [2] is T2, c-Kit kinase (SEQ ID NO:9) (Homo sapiens, UniProt P10721).
T2 construct: contained c-Kit (cKIT residues T544-V976, from ProQinase, 5.4 nM); purchased ProQinase
The experiment in a line: C-Kit kinase (SEQ ID NO:9) assay, pyruvate kinase/lactate dehydrogenase coupled. The note with it: <2 min preincubation, ATP 200 μM; read-out: Biochemical IC50, c-Kit Enzyme Assay. The method, then:
C-Kit Kinase (SEQ ID NO:9) Assay
Activity of c-Kit kinase (SEQ ID NO:9) was determined by following the production of ADP from the kinase reaction through coupling with the pyruvate kinase/lactate dehydrogenase system (e.g., Schindler, et al. Science (2000) 289, 1938-1942). In this assay, the oxidation of NADH (thus the decrease at A340 nm) was continuously monitored spectrophometrically. The reaction mixture (100 μl) contained c-Kit (cKIT residues T544-V976, from ProQinase, 5.4 nM), polyE4Y (1 mg/ml), MgCl2 (10 mM), pyruvate kinase (4 units), lactate dehydrogenase (0.7 units), phosphoenol pyruvate (1 mM), and NADH (0.28 mM) in 90 mM Tris buffer containing 0.2% octyl-glucoside and 1% DMSO, pH 7.5. Test compounds were incubated with […] (SEQ ID NO:9) and other reaction reagents at 22° C. for <2 min before ATP (200 μM) was added to start the reaction. The absorption at 340 nm was monitored continuously for 0.5 hours at 30° C. on Polarstar Optima plate reader (BMG). The reaction rate was calculated using the 0 to 0.5 h time frame. Percent inhibition was obtained by comparison of reaction rate with that of a control (i.e. with no test compound). IC50 values were calculated from a series of percent inhibition values determined at a range of inhibitor concentrations using software routines as implemented in the GraphPad Prism software package.

Test [3] concerns the target T3, BaF3 cells transfected with T315I p210 BCR-Abl (Homo sapiens, UniProt P00519, T315I, cells depend on it).
T3 construct: fused on or other part: P11274 (Breakpoint cluster region protein)
The experiment in a line: Ba/F3 p210 T315I whole cell proliferation assay. In kind it is cell-based. The note with it: 72 hours, Cell Titer Blue; read-out: Whole Cell Antiproliferation IC50, Ba/F3 p210 T315I whole cell proliferation assay. On the technique in general: Alamar Blue is a resazurin reagent that responds to reducing activity.

T2 sequence (P10721 with tags, fused parts or gaps): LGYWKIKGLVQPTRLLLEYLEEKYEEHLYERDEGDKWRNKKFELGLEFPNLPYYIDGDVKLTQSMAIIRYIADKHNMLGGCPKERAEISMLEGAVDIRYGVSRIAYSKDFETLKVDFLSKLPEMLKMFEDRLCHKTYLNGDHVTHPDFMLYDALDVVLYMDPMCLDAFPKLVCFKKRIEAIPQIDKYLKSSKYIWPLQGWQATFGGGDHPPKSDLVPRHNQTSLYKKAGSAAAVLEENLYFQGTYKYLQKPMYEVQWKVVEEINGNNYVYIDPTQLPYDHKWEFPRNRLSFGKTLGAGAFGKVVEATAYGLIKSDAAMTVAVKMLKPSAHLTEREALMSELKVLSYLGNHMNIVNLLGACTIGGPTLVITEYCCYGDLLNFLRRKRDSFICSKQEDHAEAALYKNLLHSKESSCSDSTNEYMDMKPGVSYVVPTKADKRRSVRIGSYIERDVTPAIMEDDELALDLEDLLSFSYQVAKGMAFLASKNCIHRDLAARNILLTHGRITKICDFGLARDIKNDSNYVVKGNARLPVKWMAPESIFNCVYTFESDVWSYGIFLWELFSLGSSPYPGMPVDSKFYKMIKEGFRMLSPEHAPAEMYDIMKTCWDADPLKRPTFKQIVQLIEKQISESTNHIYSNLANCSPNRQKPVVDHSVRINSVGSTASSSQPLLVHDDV

As usually defined, the IC50 is the midpoint of a concentration-inhibition curve. Turning to `Cn1cc(-c2cc(Oc3ccc(NC(=O)Nc4cnc(C(C)(C)C)nc4N4CCOCC4)c(F)c3)ccn2)cn1` [Example 41, 1-(2-tert-butyl-4-morpholinopyrimidin-5-yl)-3-(2-fluoro-4-(2-(1-methyl-1H-pyrazol-4-yl)pyridin-4-yloxy)phenyl)urea], the IC50 in test [1] and in test [2] was below 100000 nM each time. In addition, the GI50 in test [3] is below 1000 nM.
`Cc1c(NC(=O)Nc2ccc(Oc3ccnc(-c4cnn(C)c4)c3)cc2F)cnn1C(C)(C)C` [Example 10, 1-(1-tert-butyl-5-methyl-1H-pyrazol-4-yl)-3-(2-fluoro-4-(2-(1-methyl-1H-pyrazol-4-yl)pyridin-4-yloxy)phenyl)urea]: the figures for the IC50 in test [1] and in test [2] were below 10000 nM and below 100 nM, respectively. Moreover, the GI50 in test [3] was below 1000 nM.
On the same counts, the results for `CN(C)CCn1nc(C(C)(C)C)cc1NC(=O)Nc1ccc(Oc2ccnc(-c3cnn(C)c3)c2)cc1F` [Example 12, 1-(3-tert-butyl-1-(2-(dimethylamino)ethyl)-11H-pyrazol-5-yl)-3-(2-fluoro-4-(2-(1-methyl-1H-pyrazol-4-yl)pyridin-4-yloxy)phenyl)urea] are below 100 nM, below 100 nM and below 100 nM.
For the compound `Cn1cc(-c2cc(Oc3ccc(NC(=O)Nc4cncc(C(F)(F)F)c4)cc3)ccn2)cn1` [Example 6, 1-(4-(2-(1-methyl-1H-pyrazol-4-yl)pyridin-4-yloxy)phenyl)-3-(5-(trifluoromethyl)pyridin-3-yl)urea], the IC50 in test [1] and in test [2] was below 100 nM each time. For the same compound, the GI50 in test [3] was below 100 nM.
For `Cn1cc(-c2cc(Oc3ccc(NC(=O)Nc4cncc(C(F)(F)F)c4)c(F)c3)ccn2)cn1` [Example 21, 1-(2-fluoro-4-(2-(1-methyl-1H-pyrazol-4-yl)pyridin-4-yloxy)phenyl)-3-(5-(trifluoromethyl)pyridin-3-yl)urea], the half-maximal inhibitory concentration (IC50) in test [1] and in test [2] was below 100 nM each time. Besides, the GI50 in test [3] is below 100 nM.
Consider `Cn1cc(-c2cc(Oc3ccc(NC(=O)Nc4cc(C(F)(F)F)cnc4-c4cnn(C)c4)c(F)c3)ccn2)cn1` [Example 42, 1-(2-fluoro-4-(2-(1-methyl-1H-pyrazol-4-yl)pyridin-4-yloxy)phenyl)-3-(2-(1-methyl-1H-pyrazol-4-yl)-5-(trifluoromethyl)pyridin-3-yl)urea], for which the IC50 in test [1] and in test [2] was below 100 nM in each case. Also, the GI50 in test [3] is below 100 nM.
Turning to `Cn1cc(-c2cc(Oc3ccc(NC(=O)Nc4cnn(C(C)(C)C)c4C(F)(F)F)c(F)c3)ccn2)cn1` [Example 9, 1-(1-tert-butyl-5-(trifluoromethyl)-1H-pyrazol-4-yl)-3-(2-fluoro-4-(2-(1-methyl-1H-pyrazol-4-yl)pyridin-4-yloxy)phenyl)urea], the IC50 in test [1] was below 100000 nM; in test [2] it was below 100 nM. For the same compound, in test [3], the GI50 was below 1000 nM.
As for `Cc1oc(C(C)(C)C)cc1NC(=O)Nc1ccc(Oc2ccnc(-c3cnn(C)c3)c2)cc1F` [Example 28, 1-(5-tert-butyl-2-methylfuran-3-yl)-3-(2-fluoro-4-(2-(1-methyl-1H-pyrazol-4-yl)pyridin-4-yloxy)phenyl)urea], the IC50 in test [1] and in test [2] was below 100 nM in each case. Besides, the GI50 in test [3] was below 1000 nM.
With `Cn1cc(-c2cc(Oc3ccc(NC(=O)Nc4cccc(C(F)(F)F)c4)c(F)c3)ccn2)cn1` [Example 3, 1-(2-fluoro-4-(2-(1-methyl-1H-pyrazol-4-yl)pyridin-4-yloxy)phenyl)-3-(3-(trifluoromethyl)phenyl)urea], the IC50 in test [1] and in test [2] was below 100 nM throughout. The GI50 in test [3] was below 100 nM.
Turning to `Cn1cc(-c2cc(Oc3ccc(NC(=O)Nc4cc(C(C)(C)C)nn4C)c(F)c3)ccn2)cn1` [Example 2, 1-(3-t-butyl-1-methyl-1H-pyrazol-5-yl)-3-(2-fluoro-4-(2-(1-methyl-1H-pyrazol-4-yl)pyridin-4-yloxy)phenyl)urea], the IC50 in test [1] and in test [2] was below 100 nM throughout. For the same compound, in test [3], the GI50 was below 100 nM.
